Results on four molecules are retold here after paper PMC4038399, “Experimental validation of [sequence]^comb virtual ligand screening results for eight proteins yields novel nanomolar and micromolar binders” (Journal of Cheminformatics, 2014).

≈ marks a conversion by molar mass, not a printed value. Like-named read-outs stand apart in the source and are kept apart here.

Test [1] deals with T1, pig heart malic dehydrogenase (malate dehydrogenase) (Sus scrofa, UniProt P00346).
T1 construct: pig heart malic dehydrogenase were obtained from Sigma-Aldrich; purchased Sigma-Aldrich; host or cells: pig heart
T1 sequence (P00346 25-338): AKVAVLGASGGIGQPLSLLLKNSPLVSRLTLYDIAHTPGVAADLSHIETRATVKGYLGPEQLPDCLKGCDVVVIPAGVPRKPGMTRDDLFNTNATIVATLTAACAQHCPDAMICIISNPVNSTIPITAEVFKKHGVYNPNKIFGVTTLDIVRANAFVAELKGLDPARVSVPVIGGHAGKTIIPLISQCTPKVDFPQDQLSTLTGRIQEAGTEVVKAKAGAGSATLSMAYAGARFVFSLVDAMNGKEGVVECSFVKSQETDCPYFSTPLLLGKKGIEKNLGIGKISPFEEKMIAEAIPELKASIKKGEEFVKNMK
Nature of the test: Thermal melt assay standardization. The class given is binding. The settings on record: read-out: Tm shift. On the procedure: (§1) High throughput thermal shift assays were carried out following established guidelines (Additional file 1: Table S1). Protein melting curves were obtained from samples aliquoted in 96-well plates using a RealPlex quantitative PCR instrument from Eppendorf (Eppendorf, NY, USA), with Sypro orange dye from Invitrogen as the fluorescent probe. A uniform final concentration of 5 X (supplied as a 5000 X stock solution) was used in all experiments. […] For standardization, different buffers and pH were checked. Thereafter, 100 mM HEPES pH 7.3 and 150 mM NaCl were used in all unfolding experiments. The volume of each reaction was 20 μl, and appropriate dye and protein controls were included. All experiments were done with a minimum of two replicates, with the mean value considered for further analysis. Several drugs/small molecules interact with Sypro orange and lead to aberrant signal enhancements. An additional control to rule out drug-dye interaction was carried out with all the constituents kept constant except for the protein of interest. The protein/protein-drug curves were reported after subtracting the respective dye alone/drug-dye curves.
(§2) Thermal melt assays were standardized on several protein/ligand pairs with reported Tm shifts. Thermal melt curves for citrate synthase were generated with both cognate ligand oxaloacetate (cat. no. O4126) and non-cognate (and nonbinding) NADH. The protein concentration was 5 µM. Titration of oxaloacetate (10 µM-200 µM) was carried out to establish the concentration dependence of the melting temperature. Thermal melting of malic dehydrogenase was performed with its cognate ligand NADH (cat no. N8129) and non-cognate ligand oxaloacetate. Studies of the concentration dependence of NADH (1 mM-5 mM) on melting temperature shifts for malic dehydrogenase at 5 µM and 10 µM concentrations, respectively, were also performed.

The test system of test [2] is HCT-116 colon carcinoma cell line. Nature of the test: Cytotoxic assay on cancer cell line. The test is classed as cell-based. The conditions noted are these: Homo sapiens, HCT-116, inhibitory concentration for 50% growth inhibition; read-out: HCT-116 (IC-50). On the procedure:
(§3) Antimicrobial and anti-cancer tests were performed as in [80].

Test [3] relates to several cancer cell lines including melanoma, prostrate, colon, and breast. On the set-up: method as in PMID 22140110. The conditions noted are these: potency not revealed; PubChem CID 24198955; cited from earlier work.
The subject of test [4] is methicillin-resistant S. aureus (ATCC 33591) (MRSA). Nature of the test: Antimicrobial assay (MIC). The test is classed as cell-based. The settings on record: Staphylococcus aureus. On the procedure:
as §3

Test [5] has as its system E. coli strain DH5α. Nature of the test: Antimicrobial assay (MIC). The test is classed as cell-based. The settings on record: Escherichia coli, Minimum inhibitory concentration required for 90% clearance. On the procedure:
as §3

Test [6] deals with multi-drug resistant E. coli SMS-3-4 (ATCC BAA-1743) (MDREC). Nature of the test: Antimicrobial assay (MIC). The test is classed as cell-based. The conditions noted are these: Escherichia coli, ATCCBAA1743. As to the method:
as §3

The subject of test [7] is vancomycin-resistant E. faecium (ATCC700221) (VREF). Nature of the test: Antimicrobial assay (MIC). The class given is cell-based. The settings on record: Enterococcus faecium, ATCC700221. As to the method: as §3
Test [8] deals with E. coli dihydrofolate reductase (DHFR) (Escherichia coli, UniProt P0ABQ4). Nature of the test: biochemical. The settings on record: Table S3. The class given is binding. The gist of the method:
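Thermal unfolding of 10 μM protein with 1 mM predicted ligand and 5 X Sypro orange in 100 mM HEPES pH 7.3, 150 mM NaCl, qPCR read-out; dye/drug-dye backgrounds subtracted. Tm from Boltzmann fit of single sigmoidal transitions; approximate KD estimated at Tm from van't Hoff enthalpy, ΔCp ignored.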

Test [9] addresses T2, carbonic anhydrase I from human RBC (Homo sapiens, UniProt P00915).
T2 construct: carbonic anhydrase I from human RBC; purchased Sigma-Aldrich; host or cells: human RBC
Nature of the test: Thermal melt assay standardization. The test is classed as binding. On the procedure: as §1, §2

The target of test [10] is T2, carbonic anhydrase I from human RBC. The conditions noted are these: read-out: dissociation constant, reported values; cited from earlier work.

T2 sequence (P00915 whole entry): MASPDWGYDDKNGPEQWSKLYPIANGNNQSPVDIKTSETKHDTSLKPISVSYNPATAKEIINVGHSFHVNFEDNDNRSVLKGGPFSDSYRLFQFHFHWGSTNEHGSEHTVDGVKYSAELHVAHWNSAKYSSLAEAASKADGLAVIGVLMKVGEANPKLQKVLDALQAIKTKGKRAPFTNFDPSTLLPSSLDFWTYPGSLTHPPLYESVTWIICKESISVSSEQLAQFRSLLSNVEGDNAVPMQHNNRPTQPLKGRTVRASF
Chain of E. coli dihydrofolate reductase (DHFR) (P0ABQ4 whole entry): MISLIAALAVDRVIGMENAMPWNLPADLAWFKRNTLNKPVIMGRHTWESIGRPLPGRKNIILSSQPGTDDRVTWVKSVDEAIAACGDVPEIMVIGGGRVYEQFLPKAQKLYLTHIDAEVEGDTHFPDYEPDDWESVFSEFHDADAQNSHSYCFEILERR

On to `NC(=O)C1=CN([C@@H]2O[C@H](COP(=O)(O)OP(=O)(O)OC[C@H]3O[C@@H](n4cnc5c(N)ncnc54)[C@H](O)[C@@H]3O)[C@@H](O)[C@H]2O)C=CC1` [NADH, nicotinamide adenine dinucleotide], for which the ΔTm at 1000 µM in test [1] (1 mM NADH) turned out to be 11 °C. Further, in test [1] (10 mM NADH), the ΔTm at 10000 µM worked out at 17 °C.

`Nc1ccc(Cn2ccc3c4c(N)nc(N)nc4ccc32)cc1` [NSC 309401, 7-[(4-aminophenyl)methyl]-7Hpyrrolo [3,2-f] quinazoline-1,3-diamine]: the IC50 in test [2] came out at 0.13 µg/mL (≈ 0.427 µM). In [3], the “activity against cancer cell lines, in words” value is “has activity”. Also, the MIC in test [4] was 31.2 µg/mL (≈ 103 µM); in [5] it was 7.8 µg/mL (≈ 25.6 µM); in [6] it was 125 µg/mL (≈ 411 µM); in [7] it was 31.2 µg/mL (≈ 103 µM).

Turning to `Nc1nc(N)c2c(ccc3[nH]ccc32)n1` [NSC 339578, 7H-Pyrrolo(3,2-f) quinazoline-1,3-diamine, reference compound], the IC50 in test [2] was determined as 6.11 µg/mL (≈ 30.7 µM). For the same molecule, the minimum inhibitory concentration (MIC) was 31.2 µg/mL (≈ 157 µM) in test [4], 62.5 µg/mL (≈ 314 µM) in test [5], 250 µg/mL (≈ 1250 µM) in [6] and 31.2 µg/mL (≈ 157 µM) in [7]. For the same molecule, the Kd in [8] (computed from the thermal shifts obtained, read-out: KD (Approx)) is approximately 115 nM. Moreover, the “Q (quality score)” value in test [8] (ratio ΔFmelt/ΔFtotal of the melting curve) stood at 1.4.

Regarding `NS(=O)(=O)C(F)(F)F` [TFMSA, trifluoromethane- sulfonamide], in [9] (read-out: Tm shift), the ΔTm at 500 µM amounted to 7.2 °C, the ΔTm at 1000 µM amounted to 9 °C and the ΔTm at 10000 µM came out at 12.3 °C. Besides, the Kd in test [9] (read-out: calculated approximate dissociation constants) was 770 to 2290 nM. Further, the Kd in test [10] is 1000 to 2170 nM.
